Test results taken from article PMC7687008, “Small molecule inhibitors provide insights into the relevance of LAT1 and LAT2 in materno‐foetal amino acid transport” (Journal of Cellular and Molecular Medicine, 2020).
pEC50: −log10 of the molar value. Values joined by “and” are separate entries in the source; they are usually repeats but may differ in a detail not shown here. Identical values can stand only once. “Also recorded” adds a separate entry of the source. Like-named read-outs stand apart in the source and are kept apart here.

Legend:
[1] = target: LAT1/LAT2 (System L transporters) in BeWo-CTB cells (Homo sapiens, UniProt Q01650); experiment: Leucine uptake inhibition in BeWo-CTB (undifferentiated BeWo cells), Na+-free buffer, 3H-leucine; assay type: cell-based; settings: for pEC50: 3 min
Sequence of LAT1/LAT2 (System L transporters) in BeWo-CTB cells (Q01650 whole entry): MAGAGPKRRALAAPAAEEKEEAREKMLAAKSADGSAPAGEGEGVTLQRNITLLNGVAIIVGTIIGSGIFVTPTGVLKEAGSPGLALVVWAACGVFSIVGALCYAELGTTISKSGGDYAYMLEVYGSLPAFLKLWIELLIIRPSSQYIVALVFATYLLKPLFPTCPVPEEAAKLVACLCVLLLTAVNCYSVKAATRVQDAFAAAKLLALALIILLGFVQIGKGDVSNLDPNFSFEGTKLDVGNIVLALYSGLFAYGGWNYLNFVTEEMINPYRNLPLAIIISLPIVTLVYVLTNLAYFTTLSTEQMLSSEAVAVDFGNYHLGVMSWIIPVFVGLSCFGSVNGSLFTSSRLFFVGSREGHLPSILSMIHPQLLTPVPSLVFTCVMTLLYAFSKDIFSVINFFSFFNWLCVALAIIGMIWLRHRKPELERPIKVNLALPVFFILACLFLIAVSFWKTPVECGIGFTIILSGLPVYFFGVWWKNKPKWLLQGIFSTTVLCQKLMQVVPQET
Sequence of LAT1/LAT2 (System L transporters) in BeWo-CTB cells (P08195 103-630 partner): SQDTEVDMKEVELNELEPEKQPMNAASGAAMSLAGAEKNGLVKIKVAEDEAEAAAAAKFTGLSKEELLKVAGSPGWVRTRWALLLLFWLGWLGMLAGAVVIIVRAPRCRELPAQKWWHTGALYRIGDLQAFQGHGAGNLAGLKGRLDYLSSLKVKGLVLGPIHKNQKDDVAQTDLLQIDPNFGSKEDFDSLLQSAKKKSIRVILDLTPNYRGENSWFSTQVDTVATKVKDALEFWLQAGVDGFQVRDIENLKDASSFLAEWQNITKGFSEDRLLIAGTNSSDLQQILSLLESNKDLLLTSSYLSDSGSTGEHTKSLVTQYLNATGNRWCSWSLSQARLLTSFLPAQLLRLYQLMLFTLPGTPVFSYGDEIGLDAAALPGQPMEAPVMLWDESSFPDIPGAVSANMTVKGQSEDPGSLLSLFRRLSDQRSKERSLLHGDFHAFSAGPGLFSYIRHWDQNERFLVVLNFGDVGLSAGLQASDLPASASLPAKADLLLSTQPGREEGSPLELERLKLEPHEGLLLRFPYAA

[2] = test system: LAT1/LAT2 (System L transporters) in BeWo-STB cells; experiment: Leucine uptake inhibition in BeWo-STB (forskolin-differentiated BeWo cells), Na+-free buffer, 3H-leucine; assay type: cell-based, human; settings: for pEC50 / inhibition of leucine uptake: BeWo-STB; for pEC50: 3 min; for residual leucine uptake: 10 µM; for inhibition of leucine uptake: 10 µmol/L inhibitor
Protocol: (§1) BeWo cells (clone b30) were cultured in DMEM containing 1.0 g/L glucose (DMEM‐lowGlucose; Gibco). […] Cells were cultured in DMEM‐lowGlucose at 37°C with 5% CO2 atmosphere for 7‐14 days.
JPH203, JG336 and JX009 were synthesized following the routes described in the European Patent Application EP 2‐959‐918‐A1, 2014. Compounds were obtained as hydrochlorides, dissolved in dimethyl sulfoxide (DMSO, Merck, Darmstadt, Germany) and applied in the concentration range from 0.001 to 31.6 μmol/L. JPH203 has been characterized as highly LAT1‐specific; JX009 is described as LAT1 and LAT2‐specific inhibitor. ^37 JG336 is a derivate of JPH203 with an additional methoxy group at the peripheral phenyl moiety residue. Compound structures are depicted in Figure 4. The ^1H‐NNMR and ^13C‐NMR spectra data of the compounds were in agreement with the expected structures and are included in the Supporting Information.
FIGURE 4 Inhibition of leucine uptake in BeWo cells using small molecule inhibitors with different specificities. Dose‐response experiments in BeWo‐cytotrophoblasts (BeWo‐CTB) and forskolin‐stimulated BeWo‐syncytiotrophoblasts (BeWo‐STB) for the established LAT1‐specific inhibitor JPH203 (A) and for the alternative compound JG336 which carries an additional methoxy group as marked in the dashed red box (B). […] BCH is a widely accepted inhibitor blocking all System L mediated transport. […] (A‐C) The new inhibitors JG336 and JX009 as well as JPH203 reached maximal inhibition (first concentration without significant difference to the bottom value) at a concentration of 10 µmol/L, JG336 required 1 µmol/L for maximal inhibition in BeWo‐CTB. BCH reached maximal inhibition at 1 mmol/L in both differentiation stages. […] Dose‐response kinetics were calculated using the nonlinear four‐parameter model [Y = Bottom + (Top − Bottom)/(1 + 10^((LogEC50‐X)*HillSlope))] and ordinary fit with GraphPad Prism software.

[3] = target: SLC7 transporters in HT-29 cells (Homo sapiens, UniProt Q01650); experiment: Leucine uptake inhibition in HT-29 cells; settings: for pEC50: EC50 of leucine uptake inhibition, Na+-free Hanks buffer
Sequence of SLC7 transporters in HT-29 cells (Q01650 whole entry): as the sequence (Q01650 whole entry) above
Sequence of SLC7 transporters in HT-29 cells (P08195 102-630 partner): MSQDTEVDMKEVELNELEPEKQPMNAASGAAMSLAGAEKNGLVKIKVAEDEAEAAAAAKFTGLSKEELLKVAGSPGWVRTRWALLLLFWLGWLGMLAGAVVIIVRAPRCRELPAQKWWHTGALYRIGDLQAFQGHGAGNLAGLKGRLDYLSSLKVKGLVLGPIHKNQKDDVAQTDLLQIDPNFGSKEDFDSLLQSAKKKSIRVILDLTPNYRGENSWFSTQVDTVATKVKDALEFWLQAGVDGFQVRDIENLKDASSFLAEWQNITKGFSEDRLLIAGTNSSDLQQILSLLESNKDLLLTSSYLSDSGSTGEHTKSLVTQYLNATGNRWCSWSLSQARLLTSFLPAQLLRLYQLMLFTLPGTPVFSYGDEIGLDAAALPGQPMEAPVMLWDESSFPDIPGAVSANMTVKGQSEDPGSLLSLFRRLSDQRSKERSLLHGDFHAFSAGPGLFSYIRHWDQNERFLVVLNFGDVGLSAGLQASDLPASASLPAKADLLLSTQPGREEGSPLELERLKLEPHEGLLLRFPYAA

Caco-2 cells = test system: Caco-2 cells; design: method as in PMID 21914964; settings: cited from earlier work
[4] = test system: LAT1/LAT2 (System L transporters) in polarized BeWo monolayer; experiment: Leucine transfer across polarized BeWo monolayer (Transwell), apical to basal, and intracellular leucine content; assay type: cell-based, human
Protocol: as §1
Before starting the transfer experiment, the formation of a tight trophoblast monolayer in BeWo cells was monitored by measuring transepithelial electrical resistance (TEER, [Ω*cm^2]) and passive diffusion as reported previously. ^38 TEER and cellular capacitance (Ccl, [µF/cm^2]) were measured every 30 minutes and analysed using the cellZscope system (nanoAnalytics, Münster, Germany) according to the manufacturer's instructions. The apparent permeability coefficient (Papp, [cm/s]) was calculated by measuring the rates of passive transfer of the paracellular pathway marker Lucifer yellow (LY) as previously described. ^39 BeWo monolayers with verified tightness were selected after 7 days of culturing on Transwell® membranes and randomly assigned to leucine transfer time courses and inhibition experiments. […] Radioactivity was quantified using Tri‐carb 2100TR Liquid Scintillation Counter (PerkinElmer).
FIGURE 5 Relevance of LAT1 and System L inhibition in leucine transfer across the placental barrier in vitro. A, Leucine transfer across a tight BeWo monolayer was measured from the apical (ie upper compartment) towards the basal (ie lower compartment) side during 6 h using the Transwell® system. […]

[5] = 167 µmol/L leucine, Na+-free Hank's buffer, read-out: EC50 of leucine uptake inhibition
[6] = 167.2 µmol/L leucine, four-parameter fit, read-out: EC50 (best-fit value in Figure 4)
[7] = BeWo-CTB, 167 µmol/L leucine, Na+-free Hank's buffer, read-out: EC50 of leucine uptake inhibition
[8] = BeWo-CTB, 167.2 µmol/L leucine, four-parameter fit, read-out: EC50 (best-fit value in Figure 4)

SMILES | Bottom of dose-response fit (leucine uptake at maximal inhibition) ([1]; BeWo-CTB, four-parameter fit) | Top of dose-response fit (leucine uptake) ([1]; BeWo-CTB, four-parameter fit) | Bottom of dose-response fit (leucine uptake at maximal inhibition) [2] | Top of dose-response fit (leucine uptake) [2] | pEC50 [2, 5] | pEC50 [2, 6] | pEC50 [1, 7] | pEC50 [1, 8] | concentration reaching maximal inhibition (first concentration without significant difference to bottom value) [2] | residual leucine uptake [2] | inhibition of leucine uptake [2] | extent of leucine uptake inhibition ([3]; 167µM leucine) | pEC50 ([3]; 30µM leucine) | pEC50 ([3]; 167µM leucine, 3min) | other results
NC1(C(=O)O)CC2CCC1C2 (stereo not drawn) [BCH, 2‐amino‐2‐norbornane‐carboxylic acid] | 0 nmol/mg protein | 5.305 nmol/mg protein | 0 nmol/mg protein | 9.770 nmol/mg protein | 3.35 | 3.36 |  |  |  |  |  |  |  |  | pEC50 ([1]; read-out: EC50 (best-fit value in Figure 4), BeWo-CTB, 167.2 µmol/L leucine, four-parameter fit): 3.15; pEC50 ([1]; read-out: EC50 of leucine uptake inhibition, BeWo-CTB, 167 µmol/L leucine, Na+-free Hank's buffer): 3.15; times less effective than JX009 [2]: > 100 times
COc1ccc(-c2nc3cc(N)cc(COc4c(Cl)cc(C[C@H](N)C(=O)O)cc4Cl)c3o2)cc1 [JG336] | 0.622 nmol/mg protein | 2.673 nmol/mg protein | 3.212 nmol/mg protein | 8.534 nmol/mg protein | 5.70 | 5.70 | 6.10 | 6.10 | 10 µmol/L | 3.2 nmol/mg protein | 62.4% and 62% | complete leucine uptake inhibition | 6.68 | 6.14 | concentration required for maximal inhibition ([1]; BeWo-CTB): 1 µmol/L
Nc1cc(COc2c(Cl)cc(C[C@H](N)C(=O)O)cc2Cl)c2oc(-c3ccccc3)nc2c1 [JPH203] | 0.716 nmol/mg protein | 3.888 nmol/mg protein | 3.758 nmol/mg protein | 8.593 nmol/mg protein | 5.59 |  | 5.51 | 5.51 | 10 µmol/L | 3.8 nmol/mg protein | 56.3% and 56% | complete leucine uptake inhibition | 6.82 | 5.66 | permeability (membrane and cell layer) (Caco-2 cells): has been shown
CN(C)c1ccc(-c2cccc(Oc3cccc(C[C@H](N)C(=O)O)c3)c2)cn1 [JX009] | 0.774 nmol/mg protein | 4.066 nmol/mg protein | 1.093 nmol/mg protein | 8.426 nmol/mg protein | 5.63 and 5.64 | 5.63 | 5.41 and > 5.40 | 5.41 | 10 µmol/L |  | 87% | complete leucine uptake inhibition | 6.22 | 5.42 | inhibition of leucine uptake ([1]; BeWo-CTB (regardless of differentiation stage)): 87%; decrease of intracellular 3H-leucine content of BeWo monolayer ([4]; 10 µM): no effect; decrease of intracellular 3H-leucine content of BeWo monolayer ([4]; 10 µmol/L, end of transfer experiment (6 hours)): intracellular leucine retention; also recorded: unchanged
